Reference: the NIST ThermoML archive (doi:10.1016/j.jct.2014.07.023)

Assay: molar heat capacity at constant pressure; xn = mol fraction of the nth substance listed
Conditions: 100 kPa, Liquid, Small sample (50 mg) DSC

CCC(O)CO (stereo not drawn) [1,2-butanediol] + CO
molar heat capacity at constant pressure [J/K/mol]
Conditions | 293.15 K | 298.15 K | 303.15 K | 308.15 K | 313.15 K | 318.15 K | 323.15 K
x1 = 0.0476 | 87.09 | 88.16 | 89.28 | 90.46 | 91.68 | 92.97 | 94.33
x1 = 0.2098 | 110.52 | 111.89 | 113.35 | 114.81 | 116.36 | 117.95 | 119.55
x1 = 0.2964 | 123.04 | 124.67 | 126.29 | 127.97 | 129.69 | 131.42 | 133.19
x1 = 0.3913 | 137.52 | 139.33 | 141.14 | 143 | 144.86 | 146.72 | 148.64
x1 = 0.4706 | 148.79 | 150.69 | 152.65 | 154.55 | 156.51 | 158.53 | 160.49
x1 = 0.6016 | 168.53 | 170.74 | 172.88 | 175.02 | 177.24 | 179.38 | 181.52
x1 = 0.6991 | 182.48 | 184.81 | 187.13 | 189.46 | 191.71 | 194.03 | 196.36
x1 = 0.8042 | 198.84 | 201.2 | 203.65 | 206.01 | 208.45 | 210.81 | 213.25
x1 = 0.8917 | 211.25 | 213.85 | 216.37 | 218.97 | 221.48 | 224 | 226.43
x1 = 0.9224 | 216.09 | 218.66 | 221.31 | 223.88 | 226.45 | 229.02 | 231.59
x1 = 0.9627 | 222 | 224.64 | 227.27 | 229.91 | 232.46 | 235.01 | 237.65
x1 = 1 | 228.1 | 230.8 | 233.5 | 236.21 | 238.91 | 241.52 | 244.23

OCCCCO [1,4-butanediol] + CO
molar heat capacity at constant pressure [J/K/mol]
Conditions | 293.15 K | 298.15 K | 303.15 K | 308.15 K | 313.15 K | 318.15 K | 323.15 K
x1 = 0.1009 | 92.1 | 93.2 | 94.34 | 95.55 | 96.84 | 98.2 | 99.61
x1 = 0.1972 | 103.34 | 104.65 | 106 | 107.43 | 108.87 | 110.35 | 111.91
x1 = 0.2955 | 114.99 | 116.42 | 117.94 | 119.47 | 121.14 | 122.81 | 124.59
x1 = 0.4144 | 129.16 | 130.79 | 132.48 | 134.21 | 136.07 | 137.97 | 139.99
x1 = 0.5093 | 140.68 | 142.41 | 144.26 | 146.17 | 148.2 | 150.29 | 152.45
x1 = 0.624 | 154.46 | 156.51 | 158.55 | 160.74 | 162.92 | 165.25 | 167.5
x1 = 0.6996 | 163.59 | 165.7 | 167.88 | 170.13 | 172.46 | 174.93 | 177.4
x1 = 0.8004 | 175.9 | 178.18 | 180.54 | 182.97 | 185.48 | 188.08 | 190.75
x1 = 0.8591 | 183.21 | 185.59 | 188.05 | 190.59 | 193.21 | 195.91 | 198.7
x1 = 0.9043 | 188.15 | 190.69 | 193.23 | 195.85 | 198.55 | 201.34 | 204.22
x1 = 0.9565 | 194.9 | 197.44 | 200.07 | 202.87 | 205.67 | 208.56 | 211.63
x1 = 1 | 201.15 | 203.76 | 206.56 | 209.44 | 212.33 | 215.39 | 218.54
